Source: patent publication US10377747B2, “2-arylamino pyridine, pyrimidine or triazine derivatives, preparation method and use thereof” (Wuxi Shuangliang Biotechnology Co., Ltd., priority 2015, dated 2019)

Legend:
[1] = tested on: H1975 (non-small-cell lung cancer cells. EGFR L858K/T790M); assay: Tumor cell proliferation and growth inhibition analysis (Cell Titer-Glo, 72 h), H1975; format: cell-based; details: Homo sapiens, NCI-H1975; H1975 cells, 72 h exposure, Cell Titer-Glo; read-out: H1975 GI50
From the text: (§1) […] cell proliferation assay is described as follows.
(§2) Tumor cell proliferation and growth inhibition analysis: H1975 (non-small-cell lung cancer cells. EGFR L858K/T790M) and A431 (human epidermal cancer cells, EGFR wild type) cells were commercially available from the ATCC cell bank. […] The growth medium for A431 cells was DMEM (GIBCO, 11995-065), 10% fetal bovine serum. The influence exerted by the compounds on the proliferation activity of tumor cells was detected by Cell Titer-Glo assay. Tumor cells were exposed to the treatment conditions for 72 h, and the cell density used in each experiment for each cell line was adjusted according to the 72 h cell growth curve. 10 concentration gradients and three-fold dilutions (0.5 nM-10 μM) were set for compounds to be tested, and 3 parallel controls were used for each concentration value.
(§3) Trypsin was used for digesting cells in the logrithmic growth phase to prepare cell suspension, which was counted by a Roche counter and appropriately diluted with complete medium to a final cell concentration of 1˜2×10^3 cell/mL. 384-well plates were seeded with cells, and 22.6 μL were seeded for each well. 3 parallels were set. The plates were incubated in an incubator with 5% CO2 at 37° C. overnight. The compounds were dissolved in DMSO to prepare […] mother liquor. […] 2 μL of compound solution was added into 18 μL of culture medium, and fully mixed. Then 2 μL of mixed solution of compound and culture medium was added into 18 μL of culture medium, and fully mixed. 2.4 μL of mixtures were added into a 384-well plates. […] After cultivation for 72 h, 24 μL of Cell Titer-Glo reagent was added. The contents were mixed on an orbital shaker for 2 min to induce cell lysis. The 384-well plates were incubated at room temperature for 10 min to stabilize the […] signal value. Data was read by Infinite® M1000 PRO (TECAN), and calculated with GraphPad Prism version 5.0. GI50 value was obtained by adjustment using a non-linear regression model of dose response curves.

[2] = tested on: A431 (human epidermal cancer cells, EGFR wild type); assay: Tumor cell proliferation and growth inhibition analysis (Cell Titer-Glo, 72 h), A431; format: cell-based; details: A-431, 72 h exposure
From the text: as §1, §2, §3

Row | SMILES | GI50 [1] [nM] | GI50 [2] [nM]
1 | C=CC(=O)Nc1cc(Nc2nccc(-c3cn(C)c4cccnc34)n2)c(OC)cc1N1CC2(CCCN2C)C1 [Example 17, N-(4-methoxy-5-((4-(1-methyl-1H-pyrrolo[3,2-b]pyridin-3-yl)pyrimidin-2-yl)amino)-2-(5-methyl-2,5-diazaspiro[3.4]oct-2-yl)phenyl)acrylamide] | 39.8 | 1300
2 | C=CC(=O)Nc1cc(Nc2nccc(-c3cn(C)c4cccnc34)n2)c(OC(F)F)cc1N1CCN(C)CC1 [Example 19, N-(4-(difluoromethoxy)-5-((4-(1-methyl-1H-pyrrolo[3,2-b]pyridin-3-yl)pyrimidin-2-yl)amino)-2-(4-methylpiperazin-1-yl)phenyl)acrylamide] | 166 | 1440
3 | C=CC(=O)Nc1cc(Nc2nccc(-c3c(C)n(C)c4sc(C)cc34)n2)c(OC)cc1N(C)CCN(C)C [Example 31, N-(2-((2-(dimethylamino)ethyl)(methyl)amino)-4-methoxy-5-((4-(2,5,6-trimethyl-thieno[2,3-b]pyrrol-4-yl)pyrimidin-2-yl)amino)phenyl)acrylamide] | 33.5 | 625
4 | C=CC(=O)Nc1cc(Nc2nccc(-c3cn(C)c4cccnc34)n2)c(OC)cc1N1CC(N(C)C)C1 [Example 14, N-(2-(3-(dimethylamino)azetidin-1-yl)-4-methoxy-5-((4-(1-methyl-1H-pyrrolo[3,2-b]pyridin-3-yl)pyrimidin-2-yl)amino)phenyl)acrylamide] | 1460 | ~3520
5 | C=CC(=O)Nc1cc(Nc2ncnc(-c3cccc4cc[nH]c34)n2)c(OC)cc1N1CCN(C)CC1 [Example 34, N-(5-((4-(1H-indol-7-yl)-1,3,5-triazin-2-yl)amino)-4-methoxy-2-(4-methylpiperazin-1-yl)phenyl)acrylamide] | 462 | 2570
6 | C=CC(=O)Nc1cc(Nc2ncnc(-c3cn(C)c4ncccc34)n2)c(OC(F)F)cc1N(C)CCN(C)C [Example 38, N-(4-(difluoromethoxy)-2-((2-(dimethylamino)ethyl)(methyl)amino)-5-((4-(1-methyl-1H-pyrrolo[2,3-b]pyridin-3-yl)-1,3,5-triazin-2-yl)amino)phenyl)acrylamide] | 8.3 | 144
7 | C=CC(=O)Nc1cc(Nc2nccc(-c3cn(C)c4cccnc34)n2)c(OC(F)F)cc1N1CCC[C@H]1CN(C)C [Example 22, (S)—N-(4-(difluoromethoxy)-2-(2-((dimethylamino)methyl)pyrrolidin-1-yl)-5-((4-(1-methyl-1H-pyrrolo[3,2-b]pyridin-3-yl)pyrimidin-2-yl)amino)phenyl)acrylamide] | 184 | 724
8 | C=CC(=O)Nc1cc(Nc2nccc(-c3nn(C)c4ccsc34)n2)c(OC(F)F)cc1N(C)CCN(C)C [Example 25] | 6.5 | 85.8
9 | C=CC(=O)Nc1cc(Nc2ncnc(-c3cccc4cc[nH]c34)n2)c(OC)cc1N(C)CCN(C)C [Example 32, N-(5-((4-(H-indol-7-yl)-1,3,5-triazin-2-yl)amino)-2-((2-(dimethylamino)ethyl)(methyl)amino)-4-methoxyphenyl)acylamide] | 9.4 | 147
10 | C=CC(=O)Nc1cc(Nc2nccc(-c3cn(C)c4cccnc34)n2)c(OC)cc1N1CCC[C@H]1CN(C)C [Example 16] | 2880 | 2100
11 | C=CC(=O)Nc1cc(Nc2nccc(-c3noc4ccccc34)n2)c(OC)cc1N1CC2(CCCN2C)C1 [Example 5, N-(5-((4-(benzo[d]isoxazol-3-yl)pyrimidin-2-yl)amino)-4-methoxy-2-(5-methyl-2,5-diazaspiro[3.4]oct-2-yl)phenyl)acrylamide] | 31.2 | 1220
12 | C=CC(=O)Nc1cc(Nc2nccc(-c3cn(C)c4cccnc34)n2)c(OC)cc1N(C)CCN(C)C [Example 12, N-(2-((2-(dimethylamino)ethyl)(methyl)amino)-4-methoxy-5-((4-(1-methyl-1H-pyrrolo[3,2-b]pyridin-3-yl)pyrimidin-2-yl)amino)phenyl)acrylamide] | 6.8 | 10200
